In patent publication US20260108546A1 (ELI LILLY AND COMPANY, priority 2024, published 2026):

Target: T1, hGIP-R (Homo sapiens, UniProt P48546)
T1 construct: expressed in transfected cells; host or cells: HEK-293 clonal cell lines
T1 sequence (P48546 22-466): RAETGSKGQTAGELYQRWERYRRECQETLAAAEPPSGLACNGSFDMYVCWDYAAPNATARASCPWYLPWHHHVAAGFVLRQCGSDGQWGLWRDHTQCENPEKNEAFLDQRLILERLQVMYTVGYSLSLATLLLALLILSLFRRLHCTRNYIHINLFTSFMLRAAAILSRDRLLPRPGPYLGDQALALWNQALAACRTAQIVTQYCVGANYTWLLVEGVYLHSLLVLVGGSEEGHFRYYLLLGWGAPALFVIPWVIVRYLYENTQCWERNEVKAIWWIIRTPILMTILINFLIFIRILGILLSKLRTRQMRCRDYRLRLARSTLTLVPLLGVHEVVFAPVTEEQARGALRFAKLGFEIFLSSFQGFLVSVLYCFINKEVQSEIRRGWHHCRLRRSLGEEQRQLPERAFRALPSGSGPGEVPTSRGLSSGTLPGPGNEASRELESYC
Assay: Functional hGIP-R Assay (cAMP formation, HTRF)
Assay type: cell-based
Conditions: for Emax: cAMP efficacy, percent of maximal response to GIP(1-42)OH, 37° C., 0.1% bovine casein, arithmetic mean ± SEM; for EC50: cAMP potency, HEK-293 cells expressing hGIP-R, incubated at 37° C. in the presence of 0.1% bovine casein, geometric mean, read-out: Human GIP-R EC50, nM (SEM, n)
In short: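 HEK-293 cells expressing hGIP-R were given a 20-point compound series in DMEM with 0.1% casein, 250 μM IBMX, 1% DMSO, 30 min at 37 °C. cAMP was read by HTRF against a standard curve, expressed as % of human GIP (1-42) OH maximum; EC50 and Emax came from four-parameter fits.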

Row | Structure (SMILES) | Emax [%] | EC50 [nM]
1 | COC(=O)N(C)c1cc([C@H]2C[C@@H]2C(=O)N[C@H](Cc2cnn(C(F)F)c2)C(=O)NC(C)(C)Cn2nc(C(F)(F)F)cc2-c2cc(F)c(=O)n(C)c2)c(F)cc1O [Example 181, Methyl (5-((1S,2S)-2-(((R)-3-(1-(difluoromethyl)-1H-pyrazol-4-yl)-1-((1-(5-(5-fluoro-1-methyl-6-oxo-1,6-dihydropyridin-3-yl)-3-(trifluoromethyl)-1H-pyrazol-1-yl)-2-methylpropan-2-yl)amino)-1-oxopropan-2-yl)carbamoyl)cyclopropyl)-4-fluoro-2-hydroxyphenyl)(methyl)carbamate] | 25.5 ± 2.92 | 23.1
2 | CN(C(=O)[C@H]1C[C@@H]1c1ccc(-c2cnc3nn(C)cc3c2)cc1)[C@H](Cc1cnn(C)c1)C(=O)NC(C)(C)Cn1nc(C(F)(F)F)cc1-c1cn[nH]n1 [Example 70, (1S,2S)-N-((R)-1-((1-(5-(2H-1,2,3-Triazol-4-yl)-3-(trifluoromethyl)-1H-pyrazol-1-yl)-2-methylpropan-2-yl)amino)-3-(1-methyl-1H-pyrazol-4-yl)-1-oxopropan-2-yl)-N-methyl-2-(4-(2-methyl-2H-pyrazolo [3,4-b]pyridin-5-yl)phenyl)cyclopropane-1-carboxamide] | 102 ± 2.2 | 158
3 | Cn1cc(C[C@@H](NC(=O)[C@H]2C[C@@H]2c2ccc(-c3cnc4nn(C)cc4c3)nc2C(F)(F)F)C(=O)NC(C)(C)Cn2cc(C(F)(F)F)cn2)cn1 [Example 22, (1S,2S)-N-((R)-1-((2-Methyl-1-(4-(trifluoromethyl)-1H-pyrazol-1-yl)propan-2-yl)amino)-3-(1-methyl-1H-pyrazol-4-yl)-1-oxopropan-2-yl)-2-(6-(2-methyl-2H-pyrazolo[3,4-b]pyridin-5-yl)-2-(trifluoromethyl)pyridin-3-yl)cyclopropane-1-carboxamide] | 109 ± 11.6 | 61.3
4 | Cn1cc(C[C@H](C(=O)NC(C)(C)Cn2nc(C(F)(F)F)cc2-c2cn[nH]n2)N2CC[C@@]3(C[C@@H]3c3ccc(-c4cnc5nn(C)cc5c4)cc3)C2=O)cn1 [Example 95, (R)—N-(1-(5-(2H-1,2,3-Triazol-4-yl)-3-(trifluoromethyl)-1H-pyrazol-1-yl)-2-methylpropan-2-yl)-3-(1-methyl-1H-pyrazol-4-yl)-2-((1R,3R)-1-(4-(2-methyl-2H-pyrazolo[3,4-b]pyridin-5-yl)phenyl)-4-oxo-5-azaspiro[2.4]heptan-5-yl)propanamide] | 90 ± 2.84 | 48.1
5 | Cn1cc(C[C@@H](NC(=O)[C@H]2C[C@@H]2c2ccc(-c3cnc4nn(C)cc4c3)cc2)C(=O)NC(C)(C)Cn2nc(C(F)(F)F)cc2C2CCC2)cn1 [Example 51, (1S,2S)-N—((R)-1-((1-(5-Cyclobutyl-3-(trifluoromethyl)-1H-pyrazol-1-yl)-2-methylpropan-2-yl)amino)-3-(1-methyl-1H-pyrazol-4-yl)-1-oxopropan-2-yl)-2-(4-(2-methyl-2H-pyrazolo[3,4-b]pyridin-5-yl)phenyl)cyclopropane-1-carboxamide] | 120 ± 6.49 | 62.7
6 | Cc1cn2cc(-c3ccc(C4CC45CCN([C@H](Cc4cnn(C(F)F)c4)C(=O)NC(C)(C)Cn4nc(C(F)(F)F)cc4-c4ccc(=O)n(C)c4)C5=O)c(C(F)(F)F)c3)cnc2n1 (single isomer, unassigned; isomer 1) [Example 153] | 77 ± 2.05 | 0.478
7 | Cc1cn2cc(-c3ccc([C@H]4C[C@@H]4C(=O)N(C)[C@H](Cc4cnn(C)c4)C(=O)NC(C)(C)Cn4nc(C(F)(F)F)cc4-c4ccc(=O)n(C)c4)cc3)cnc2n1 [Example 91, (1S,2S)-N-Methyl-N-((R)-1-((2-methyl-1-(5-(1-methyl-6-oxo-1,6-dihydropyridin-3-yl)-3-(trifluoromethyl)-1H-pyrazol-1-yl)propan-2-yl)amino)-3-(1-methyl-1H-pyrazol-4-yl)-1-oxopropan-2-yl)-2-(4-(2-methylimidazo[1,2-a]pyrimidin-6-yl)phenyl)cyclopropane-1-carboxamide] | 114 | 60.9
8 | CC(C)(Cn1cc(C(F)(F)F)cn1)NC(=O)[C@@H](Cc1cnc2ncccn12)NC(=O)C1CC1c1ccc(-c2cnc3nn(C(F)F)cc3c2)cn1 (single isomer, unassigned; isomer 2) [Example 72] | 102 ± 4.83 | 300
9 | Cn1cc(C[C@@H](NC(=O)[C@H]2C[C@@H]2c2ccc(-c3cnc4nn(C)cc4c3)cc2)C(=O)NC(C)(C)Cn2nc(C(F)(F)F)cc2C2CC2)cn1 [Example 21, (1S,2S)-N-((R)-1-((1-(5-Cyclopropyl-3-(trifluoromethyl)-1H-pyrazol-1-yl)-2-methylpropan-2-yl)amino)-3-(1-methyl-1H-pyrazol-4-yl)-1-oxopropan-2-yl)-2-(4-(2-methyl-2H-pyrazolo [3,4-b]pyridin-5-yl)phenyl) cyclopropane-1-carboxamide] | 102 ± 1.71 | 63.4
10 | Cn1cc(-c2cc(C(F)(F)F)nn2CC(C)(C)NC(=O)[C@@H](Cc2cnc3ncccn23)NC(=O)[C@H]2C[C@@H]2c2ccc(-c3cnc4nccn4c3)cc2)cn1 [Example 38] | 92.1 | 7.93
11 | Cc1ccc2cc(-c3ccc([C@H]4C[C@@H]4C(=O)N[C@H](Cc4cnn(C)c4)C(=O)NC(C)(C)Cn4nc(C(F)(F)F)cc4-c4cn[nH]n4)cc3)cnc2n1 [Example 94, (1S,2S)-N—((R)-1-((1-(5-(2H-1,2,3-Triazol-4-yl)-3-(trifluoromethyl)-1H-pyrazol-1-yl)-2-methylpropan-2-yl)amino)-3-(1-methyl-1H-pyrazol-4-yl)-1-oxopropan-2-yl)-2-(4-(7-methyl-1,8-naphthyridin-3-yl)phenyl)cyclopropane-1-carboxamide] | 101 | 35.4
12 | COc1ncc(-c2ccc([C@H]3C[C@@]34CCN([C@H](Cc3cnn(C(F)F)c3)C(=O)NC(C)(C)Cn3nc(C(F)(F)F)cc3-c3ccn(C5CC5)c(=O)c3)C4=O)c(C)n2)cn1 [Example 173, (R)-N-(1-(5-(1-cyclopropyl-2-oxo-1,2-dihydropyridin-4-yl)-3-(trifluoromethyl)-1H-pyrazol-1-yl)-2-methylpropan-2-yl)-3-(1-(difluoromethyl)-1H-pyrazol-4-yl)-2-((1R,3R)-1-(6-(2-methoxypyrimidin-5-yl)-2-methylpyridin-3-yl)-4-oxo-5-azaspiro[2.4]heptan-5-yl)propanamide] | 15.9 ± 0.138 | 24.6
13 | CCc1cn2cc(-c3ccc([C@H]4C[C@@H]4C(=O)N[C@H](Cc4cnc5ncccn45)C(=O)NC(C)(C)Cn4cc(C(F)(F)F)cn4)cc3)cnc2n1 [Example 82, (1S,2S)-2-(4-(2-Ethylimidazo[1,2-a]pyrimidin-6-yl)phenyl)-N-((R)-3-(imidazo[1,2-a]pyrimidin-3-yl)-1-((2-methyl-1-(4-(trifluoromethyl)-1H-pyrazol-1-yl)propan-2-yl)amino)-1-oxopropan-2-yl)cyclopropane-1-carboxamide] | 106 ± 2.58 | 36.4
14 | Cc1cn2cc(-c3ccc([C@H]4C[C@@]45CCN([C@H](Cc4cnn(C(F)F)c4)C(=O)NC(C)(C)Cn4nc(C(F)(F)F)cc4-c4cnc(C(F)(F)F)nc4)C5=O)cc3)cnc2n1 (single isomer, unassigned; isomer 1) [Example 102] | 69.4 ± 0.0734 | 50.9
15 | Cn1cc(C[C@@H](NC(=O)[C@H]2C[C@@H]2c2ccc(-c3cnc4nn(C)cc4c3)cc2)C(=O)NC(C)(C)Cn2nc(C(F)(F)F)cc2-c2n[nH]cc2F)cn1 [Example 14, (1S,2S)-N-((R)-1-((1-(4-Fluoro-5′-(trifluoromethyl)-1H,2′H-[3,3′-bipyrazol]-2′-yl)-2-methylpropan-2-yl)amino)-3-(1-methyl-1H-pyrazol-4-yl)-1-oxopropan-2-yl)-2-(4-(2-methyl-2H-pyrazolo[3,4-b]pyridin-5-yl)phenyl) cyclopropane-1-carboxamide] | 103 ± 10.2 | 87.7
16 | Cn1cc2cc(-c3ccc([C@H]4C[C@@]45CCN([C@H](Cc4cnn(C(F)F)c4)C(=O)NC(C)(C)Cn4nc(C(F)(F)F)cc4-c4cn(C)c(=O)c6ccnn46)C5=O)cc3)cnc2n1 [Example 133, (R)-3-(1-(Difluoromethyl)-1H-pyrazol-4-yl)-N-(2-methyl-1-(5-(5-methyl-4-oxo-4,5-dihydropyrazolo[1,5-a]pyrazin-7-yl)-3-(trifluoromethyl)-1H-pyrazol-1-yl)propan-2-yl)-2-((1R,3R)-1-(4-(2-methyl-2H-pyrazolo[3,4-b]pyridin-5-yl)phenyl)-4-oxo-5-azaspiro[2.4]heptan-5-yl)propanamide] | 78.4 ± 3.18 | 13.7
17 | Cn1cc(C[C@@H](NC(=O)[C@H]2C[C@@H]2c2ccc(-c3cnc4nn(C)cc4c3)cc2)C(=O)NC(C)(C)Cn2nc(C(F)(F)F)cc2-c2cc3c(=O)[nH]cnn3c2)cn1 [Example 57, (1S,2S)-N-((R)-1-((2-Methyl-1-(5-(4-oxo-3,4-dihydropyrrolo[2,1-f][1,2,4]triazin-6-yl)-3-(trifluoromethyl)-1H-pyrazol-1-yl)propan-2-yl)amino)-3-(1-methyl-1H-pyrazol-4-yl)-1-oxopropan-2-yl)-2-(4-(2-methyl-2H-pyrazolo[3,4-b]pyridin-5-yl)phenyl) cyclopropane-1-carboxamide] | 112 ± 14.8 | 61
